Test results: patent publication US10544140B2, “Pharmaceutical composition containing, as active ingredient, 7-azaindolin-2-one derivative or pharmaceutically acceptable salt thereof” (LG CHEM, LTD., priority 2015, dated 2020)
Read-outs that look alike come from different tables or passages of the source.

Key:
[1] = tested on: MCF-7 (human breast cancer cell line); experiment: Cytotoxicity test by MTT assay, MCF-7; assay type: cell-based; details: Homo sapiens, read-out: Cell viability (% inhibition)
Protocol: (§1) A cytotoxicity test was measured by MTT assay. Each cell line was cultured in a 96-well plate at a density of 1×10^4 cells/well. […] MTT (3-(4,5-dimethylthiazol-2-yl)-2,5-diphenyltetrazolium bromide) solution (5 mg/mL) was added to each well and reacted for 4 hours in an incubator. […] After reacting in an incubator for 30 minutes, the formation of formazan was quantified using a microplate reader at an absorbance of 540 nm. […] At this time, sunitinib was used as a control group. […] The human cancer cell lines used herein are MCF-7 (breast cancer), MDA-MB-231 (breast cancer), HT-29 (colon cancer), DU145 (prostate cancer), U937 (myeloid leukemia), A549 (lung cancer), PANC-1 (pancreatic cancer) and MIA PaCa-2 (pancreatic cancer).

[2] = tested on: PANC-1 (human pancreatic cancer cell line); experiment: Cytotoxicity test by MTT assay, PANC-1; assay type: cell-based; details: Homo sapiens, read-out: Cell viability (% inhibition)
Protocol: as §1

[3] = tested on: MDA-MB-231 (breast cancer); experiment: Cytotoxicity test by MTT assay, MDA-MB-231; assay type: cell-based, human
Protocol: (§2) A cytotoxicity test was measured by MTT assay. Each cell line was cultured in a 96-well plate at a density of 1×10^4 cells/well. After 24 hours, the culture medium containing 1% FBS (fetal bovine serum) was treated and reacted with compounds or solutions of compounds for 48 hours. MTT (3-(4,5-dimethylthiazol-2-yl)-2,5-diphenyltetrazolium bromide) solution (5 mg/mL) was added to each well and reacted for 4 hours in an incubator. […] After reacting in an incubator for 30 minutes, the formation of formazan was quantified using a microplate reader at an absorbance of 540 nm. […] The human cancer cell lines used herein are MCF-7 (breast cancer), MDA-MB-231 (breast cancer), HT-29 (colon cancer), DU145 (prostate cancer), U937 (myeloid leukemia), A549 (lung cancer), PANC-1 (pancreatic cancer) and MIA PaCa-2 (pancreatic cancer).

[4] = Cytotoxicity test by MTT assay, HEK293 normal cell line; assay type: cell-based; details: human, HEK293 cells (normal cell line)
Protocol: A cytotoxicity test was measured by MTT assay. Each cell line was cultured in a 96-well plate at a density of 1×10^4 cells/well. After 24 hours, the culture medium containing 1% FBS (fetal bovine serum) was treated and reacted with compounds or solutions of compounds for 48 hours. MTT (3-(4,5-dimethylthiazol-2-yl)-2,5-diphenyltetrazolium bromide) solution (5 mg/mL) was added to each well and reacted for 4 hours in an incubator. […] After reacting in an incubator for 30 minutes, the formation of formazan was quantified using a microplate reader at an absorbance of 540 nm.

U937 (myeloid leukemia) = experiment: Cytotoxicity test by MTT assay, U937; assay type: cell-based, human
Protocol: as §2

A549 (lung cancer) = experiment: Cytotoxicity test by MTT assay, A549; assay type: cell-based, human
Protocol: as §2

HT-29 (colon cancer) = experiment: Cytotoxicity test by MTT assay, HT-29; assay type: cell-based, human
Protocol: as §2

DU145 (prostate cancer) = experiment: Cytotoxicity test by MTT assay, DU145; assay type: cell-based, human; details: DU-145
Protocol: as §2

In the case of `COc1ccc(/C=C2\C(=O)Nc3nc(C)c(O)c(C)c32)cc1` [Compound I-14, (Z)-5-Hydroxy-3-(4-methoxybenzylidene)-4,6-dimethyl-1H-pyrrolo[2,3-b]pyridin-2(3H)-one], the cytotoxicity at 30 µM ([1]; MCF7, MCF-7, 30 μM, 48 h) is reported as 23.9% and the cytotoxicity at 30 µM ([2]; PANC-1, 30 μM, 48 h) is reported as 36.3%.
Compound `COc1cc(/C=C2\C(=O)Nc3nc(C)c(O)c(C)c32)cc(OC)c1OC` [Compound I-16, (Z)-5-Hydroxy-4,6-dimethyl-3-(3,4,5-trimethoxybenzylidene)-1H-pyrrolo[2,3-b]pyridin-2(3H)-one] has a cytotoxicity at 30 µM ([1]; MCF7, MCF-7, 30 μM, 48 h) of 41.2% and a cytotoxicity at 30 µM ([2]; PANC-1, 30 μM, 48 h) of 40.6%.
`Cc1nc2c(c(C)c1O)/C(=C/c1ccc3ccccc3c1)C(=O)N2` [Compound I-20, (Z)-5-Hydroxy-4,6-dimethyl-3-(naphthalen-2-ylmethylene)-1H-pyrrolo[2,3-b]pyridin-2(3H)-one] gave a cytotoxicity at 30 µM ([1]; MCF7, MCF-7, 30 μM, 48 h) of 30.5% and a cytotoxicity at 30 µM ([2]; PANC-1, 30 μM, 48 h) of 28.9%.
Compound `Cc1nc2c(c(C)c1O)/C(=C/c1ccccn1)C(=O)N2` [Compound I-21, (Z)-5-Hydroxy-4,6-dimethyl-3-(pyridin-2-ylmethylene)-1H-pyrrolo[2,3-b]pyridin-2(3H)-one] has a cytotoxicity at 30 µM ([1]; MCF7, MCF-7, 30 μM, 48 h) of 28.1% and a cytotoxicity at 30 µM ([2]; PANC-1, 30 μM, 48 h) of 29.2%.
For `Cc1nc2c(c(C)c1O)/C(=C/c1ccc3ccccc3n1)C(=O)N2` [Compound I-24, (Z)-5-Hydroxy-4,6-dimethyl-3-(quinolin-2-ylmethylene)-1H-pyrrolo[2,3-b]pyridin-2(3H)-one], the “cytotoxicity compared with the reference drug sunitinib” value [3] was “greater than or equal to that of the reference drug sunitinib”, the IC50 ([3]; Homo sapiens, MBA-MB-231, 48 h) was 2.81 µM and the IC50 at 48 h [4] was 46.8 µM. For the same compound, the IC50 (U937 (myeloid leukemia); Homo sapiens, U-937, U937, 48 h) was 6.67 µM, the “cytotoxicity compared with the reference drug sunitinib” value (U937 (myeloid leukemia); U937) was “greater than or equal to that of the reference drug sunitinib” and the “cytotoxicity compared with the reference drug sunitinib” value (A549 (lung cancer); A-549) was “greater than or equal to that of the reference drug sunitinib”. The IC50 (A549 (lung cancer); Homo sapiens, A549, 48 h) was 4.2 µM, the “cytotoxicity compared with the reference drug sunitinib” value (HT-29 (colon cancer); HT-29) was “greater than or equal to that of the reference drug sunitinib” and the IC50 (HT-29 (colon cancer); Homo sapiens, HT-29, 48 h) was 4.57 µM. The “cytotoxicity compared with the reference drug sunitinib” value (DU145 (prostate cancer)) was “greater than or equal to that of the reference drug sunitinib” and the IC50 (DU145 (prostate cancer); Homo sapiens, DU145, 48 h) was 1.07 µM.
`Cc1nc2c(c(C)c1O)/C(=C/c1cccc3[nH]ccc13)C(=O)N2` [Compound I-25, (Z)-3-((1H-Indol-4-yl)methylene)-5-hydroxy-4,6-dimethyl-1H-pyrrolo[2,3-b]pyridin-2(3H)-one] showed a cytotoxicity at 30 µM ([1]; MCF7, MCF-7, 30 μM, 48 h) of 14.5% and a cytotoxicity at 30 µM ([2]; PANC-1, 30 μM, 48 h) of 32.3%.
For `Cc1nc2c(c(C)c1O)/C(=C/c1c[nH]c3ccccc13)C(=O)N2` [Compound I-26, (Z)-3-((1H-Indol-3-yl)methylene)-5-hydroxy-4,6-dimethyl-1H-pyrrolo[2,3-b]pyridin-2(3H)-one], the cytotoxicity at 30 µM ([1]; MCF7, MCF-7, 30 μM, 48 h) was 2.4% and the cytotoxicity at 30 µM ([2]; PANC-1, 30 μM, 48 h) was 17.1%.
In the case of `Cc1nc2c(c(C)c1O)/C(=C/c1ccco1)C(=O)N2` [Compound I-27, (Z)-3-(Furan-2-ylmethylene)-5-hydroxy-4,6-dimethyl-1H-pyrrolo[2,3-b]pyridin-2(3H)-one], the cytotoxicity at 30 µM ([1]; MCF7, MCF-7, 30 μM, 48 h) is reported as 31.5% and the cytotoxicity at 30 µM ([2]; PANC-1, 30 μM, 48 h) is reported as 16.4%.
In the case of `Cc1nc2c(c(C)c1O)/C(=C/c1cccs1)C(=O)N2` [Compound I-29, (Z)-5-Hydroxy-4,6-dimethyl-3-(thiophen-2-ylmethylene)-1H-pyrrolo[2,3-b]pyridin-2(3H)-one], the cytotoxicity at 30 µM ([1]; MCF7, MCF-7, 30 μM, 48 h) is reported as 57.8% and the cytotoxicity at 30 µM ([2]; PANC-1, 30 μM, 48 h) is reported as 42.2%.
With `Cc1ccsc1/C=C1\C(=O)Nc2nc(C)c(O)c(C)c21` [Compound I-30, (Z)-5-Hydroxy-4,6-dimethyl-3-((3-methylthiophen-2-yl)methylene)-1H-pyrrolo[2,3-b]pyridin-2(3H)-one] the cytotoxicity at 30 µM ([1]; MCF7, MCF-7, 30 μM, 48 h) was 59% and the cytotoxicity at 30 µM ([2]; PANC-1, 30 μM, 48 h) was 47.2%.
In the case of `Cc1nc2c(c(C)c1O)/C(=C/c1ncc[nH]1)C(=O)N2` [Compound I-33, (Z)-3-((1H-Imidazol-2-yl)methylene)-5-hydroxy-4,6-dimethyl-1H-pyrrolo[2,3-b]pyridin-2(3H)-one], the cytotoxicity at 30 µM ([1]; MCF7, MCF-7, 30 μM, 48 h) is reported as 2.6% and the cytotoxicity at 30 µM ([2]; PANC-1, 30 μM, 48 h) is reported as 7.2%.
Work on `Cc1nc2c(c(C)c1O)/C(=C/c1c[nH]cn1)C(=O)N2` [Compound I-34, (Z)-3-((1H-Imidazol-4-yl)methylene)-5-hydroxy-4,6-dimethyl-1H-pyrrolo[2,3-b]pyridin-2(3H)-one] yielded a cytotoxicity at 30 µM ([1]; MCF7, 48 h) of 4.1% and a cytotoxicity at 30 µM ([2]; PANC-1, 48 h) of 4.5%.
Compound `Cc1nc2c(c(C)c1O)/C(=C/c1nccs1)C(=O)N2` [Compound I-35, (Z)-5-Hydroxy-4,6-dimethyl-3-(thiazol-2-ylmethylene)-1H-pyrrolo[2,3-b]pyridin-2(3H)-one] has a cytotoxicity at 30 µM ([1]; MCF7, MCF-7, 30 μM, 48 h) of 5.6% and a cytotoxicity at 30 µM ([2]; PANC-1, 30 μM, 48 h) of 9%.
